# Measurements reported in ChEMBL document CHEMBL1156717, “Synthesis and biological evaluation of pyrazoline analogues with beta-amino acyl group as dipeptidyl peptidase IV inhibitors” (Eur J Med Chem, 2008).
# Molecular target: CYP3A4 (Homo sapiens, UniProt P08684)
# Assay: Inhibition of CYP3A4 at 10 uM by fluorimetry assay in presence of NADP; values are per cent of control
# Chain of CYP3A4 (P08684 whole entry): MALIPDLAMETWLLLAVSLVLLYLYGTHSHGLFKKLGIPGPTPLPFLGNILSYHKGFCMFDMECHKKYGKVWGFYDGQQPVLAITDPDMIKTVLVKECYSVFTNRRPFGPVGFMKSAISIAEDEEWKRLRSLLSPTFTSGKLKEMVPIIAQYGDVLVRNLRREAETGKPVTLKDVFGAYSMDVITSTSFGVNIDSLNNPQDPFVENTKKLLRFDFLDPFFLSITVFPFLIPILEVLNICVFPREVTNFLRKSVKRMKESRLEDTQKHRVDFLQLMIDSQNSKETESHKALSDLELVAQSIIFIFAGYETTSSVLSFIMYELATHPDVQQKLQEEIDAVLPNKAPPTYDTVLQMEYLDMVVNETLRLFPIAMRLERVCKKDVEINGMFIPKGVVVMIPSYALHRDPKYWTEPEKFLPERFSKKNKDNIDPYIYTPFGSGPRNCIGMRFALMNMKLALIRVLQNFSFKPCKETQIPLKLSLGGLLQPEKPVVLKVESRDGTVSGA
row,Structure (SMILES),residual activity at 10 µM [%]
1,CCOC(=O)COc1ccc(NC(=O)C2CC=NN2C(=O)C[C@H](N)Cc2cc(F)c(F)cc2F)cc1 (stereo not given in full),6.9
2,Nc1ccc(CNC(=O)C2CC=NN2C(=O)C[C@H](N)Cc2cc(F)c(F)cc2F)cc1 (stereo not given in full),4.5
3,N[C@@H](CC(=O)N1N=CCC1C(=O)Nc1ccc(OCC(=O)O)cc1)Cc1cc(F)c(F)cc1F (stereo not given in full),59.3
4,N[C@@H](CC(=O)N1N=CCC1C(=O)NCc1ccc(C(=O)O)cc1)Cc1cc(F)c(F)cc1F (stereo not given in full),62
5,N[C@@H](CC(=O)N1N=CCC1C(=O)NCc1ccccc1)Cc1cc(F)c(F)cc1F (stereo not given in full),18.8
